According to patent publication US20110039783A1, “PEPTIDE HAVING HYPOTENSIVE ACTIVITY” (DAIICHI SANKYO COMPANY LIMITED, priority 2007, published 2011):
“Also recorded” adds a separate entry of the source. One block for each substance: values may come before it. Where no end group is shown, it is not given here.

Assays:
[1] = test system: anti-[N-Cys]-HC021-004 serum; assay: ELISA binding of anti-[N-Cys]-HC021-004 serum to coated peptides; parameters: species or system rabbit; details: absorbance at 405 nm, FIG. 3
Text: Using [N-Cys]-HC021-004 (a peptide prepared by binding cysteine to the amino terminus of HC021-004) as an antigen, a rabbit was immunized with the antigen to produce antiserum (anti-[N-Cys]-HC021-004 serum).
The ability of this antiserum to bind to peptides having various types of sequences was examined using Protein Detector™ ELISA kit (AP; BluePhos System; manufactured by KPL). Reactions were all carried out at a room temperature. A 96-well immunoplate (maxi-coated; manufactured by Nunc) was coated (amount: 100 uL/well) with each peptide having a different type of sequence (concentration: 1 ng/100 uL) for 1 hour. Then, it was blocked with a 300 uL/well blocking solution for 1 hour. Thereafter, the serially diluted antiserum was added in an amount of 100 uL/well to the immunoplate, followed by reaction for 1 hour. After completion of washing, 500-times diluted Anti-rabbit IgG HRP Ab (manufactured by KPL) was added thereto in an amount of 100 uL/well, followed by reaction for 1 hour. After completion of washing, ABTS (manufactured by KPL) used as a substrate was added thereto in an amount of 100 uL/well. Thirty minutes later, the absorbance at 405 nm was measured.

[2] = test system: blood pressure of anesthetized Sprague-Dawley IGS male rats; assay: Hypotensive activity in anesthetized rats, invasive blood pressure measurement after intravenous administration; type: in vivo, rat; details: for Hypotensive activity (dose/rat) 30 nmol / Hypotensive activity (dose/rat) 100 nmol / Hypotensive activity (dose/rat) 10 nmol: intravenous; for Hypotensive activity (dose/rat) 30 nmol: 30 nmol/rat; for Hypotensive activity (dose/rat) 100 nmol: 100 nmol/rat; for Hypotensive activity (dose/rat) 10 nmol: 10 nmol/rat
Description: 50 mg/kg pentobarbital sodium was intraperitoneally administered to 8- to 10-week-old Sprague-Dawley IGS male rats (Charles River Laboratories Japan, Inc.) for anesthesia. Thereafter, a tracheal cannula (PE 250), a femoral vein cannula (PE50), and a femoral artery cannula (PESO) were inserted into each rat. The femoral artery cannula was connected with a pressure transducer (PE23XL; manufactured by Nihon Kohden Corporation), and an apparatus formed by incorporating a blood pressure measurement unit (AP-641G; manufactured by Nihon Kohden Corporation) and an instantaneous heart rate measurement unit (AT-601G; manufactured by Nihon Kohden Corporation) into a multi-purpose preamplifier (RP-6004; manufactured by Nihon Kohden Corporation) was used to record the blood pressure and heart rate of each rat. The blood pressure was calibrated using a mercury manometer included in a stand-type electromanometer (MP-25S; manufactured by Nihon Kohden Corporation). The recording paper was adjusted, such that 10 mm or 20 mm on the recording paper corresponded to 100 mmHg.
Each peptide was dissolved in a concentration of 1 mM or 10 mM in a 0.1% acetic acid solution to prepare a peptide solution. Thereafter, depending on dose, it was diluted with a normal saline containing 0.1% bovine serum albumin (Fr.V). In the case of the dose of 10 nmol/rat, a 1 mM peptide solution was 10 times diluted, and 100 μl of the diluted solution was administered. In the case of the dose of 30 nmol/rat, a 1 mM peptide solution was 10 times diluted, and 300 μL, of the diluted solution was administered. In the case of the dose of 100 nmol/rat, a 10 mM peptide solution was 10 times diluted, and 100 μL of the diluted solution was administered. Each peptide was intravenously administered via the femoral vein cannula, and the systolic blood pressure, diastolic blood pressure, and heart rate were then measured.
Various HC021 derivative peptides were synthesized in accordance with Example 1, and such peptide was then administered to each rat at a dose of 10 nmol/rat, 30 nmol/rat, or 100 mol/rat by the method described in Example 2. Thereafter, the hypotensive activity of each derivative peptide was measured. […] The strength of such activity was determined using a median of activity in repeated experiments. In addition, in order to make a comparison among the activities of various derivative peptides, the strength of hypotensive activity was defined as follows.
Strength of Hypotensive Activity
Extremely strong activity (+++): A decrease in systolic blood pressure is 30 mmHg or more, and the time required for recovery is 5 minutes or more.
Strong activity (++): A decrease in systolic blood pressure is 20 mmHg or more and less than 30 mmHg, or the time required for recovery is less than 5 minutes.
Activity observed (+): A decrease in systolic blood pressure is less than 20 mmHg.
Activity not observed (−)
Various HC021 peptide sequence-substituted products were synthesized in accordance with Example 1, and their hypotensive activity was then measured according to the method of Example 3.

[3] = test system: blood pressure of awake Sprague-Dawley IGS male rats; assay: Hypotensive activity on awake rats; type: in vivo, rat; parameters: key to Hypotensive activity (dose/rat) 10 nmol / Hypotensive activity (dose/rat) 30 nmol: Extremely strong activity (+++): A decrease in systolic blood pressure is 30 mmHg or more, and the time required for recovery is 5 minutes or more.; Strong activity (++): A decrease in systolic blood pressure is 20 mmHg or more and less than 30 mmHg, or the time required for recovery is less than 5 minutes.; Activity observed (+): A decrease in systolic blood pressure is less than 20 mmHg.; Activity not observed (−); details: for Hypotensive activity (dose/rat) 10 nmol / Hypotensive activity (dose/rat) 30 nmol / Hypotensive activity (dose/rat) 100 nmol: Table 4, intravenous; for Hypotensive activity (dose/rat) 10 nmol: 10 nmol/rat; for Hypotensive activity (dose/rat) 30 nmol: 30 nmol/rat; for Hypotensive activity (dose/rat) 100 nmol: 100 nmol/rat
Description: 50 mg/kg pentobarbital sodium was intraperitoneally administered to 8- to 10-week-old Sprague-Dawley IGS male rats (Charles River Laboratories Japan, Inc.) for anesthesia. Thereafter, a jugular vein cannula (Silascon 0.5-1.0) was inserted into each rat for use in peptide administration, and a carotid artery cannula (PE50) was inserted into each rat for use in the measurement of blood pressure. At least 3 hours after the surgery, it was confirmed that the rats were awoken from the anesthesia based on general conditions such as the posture, respiration, and the like of the rats. Thereafter, the rats were subjected to the experiment.
The carotid artery cannula was connected with a pressure transducer (PE23XL; manufactured by Nihon Kohden Corporation), and an apparatus formed by incorporating a blood pressure measurement unit (AP-641G; manufactured by Nihon Kohden Corporation) and an instantaneous heart rate measurement unit (AT-601G; manufactured by Nihon Kohden Corporation) into a multi-purpose preamplifier (RP-6004; manufactured by Nihon Kohden Corporation) was used to record the blood pressure and heart rate of each rat. The blood pressure was calibrated using a mercury manometer included in a stand-type electromanometer (MP-25S; manufactured by Nihon Kohden Corporation). The recording paper was adjusted, such that 20 mm or 40 mm on the recording paper corresponded to 100 mmHg. A solvent in which each peptide had been dissolved was used as a negative control in blood pressure fluctuation.
Each peptide was dissolved in a concentration of 1 mM in a 5% mannitol solution to prepare a peptide solution. Thereafter, depending on dose, it was diluted with a 5% mannitol solution. In the case of the dose of 10 nmol/rat, a 1 mM peptide solution was 30 times diluted, and 300 μL of the diluted solution was administered. In the case of the dose of 30 nmol/rat, a 1 mM peptide solution was 10 times diluted, and 300 μl of the diluted solution was administered. In the case of the dose of 100 nmol/rat, a 1 mM peptide solution was 3 times diluted, and 300 μL of the diluted solution was administered. Each peptide was intravenously administered via the jugular vein cannula, and the systolic blood pressure, diastolic blood pressure, and heart rate were then measured.
The definition of the strength of hypotensive activity was the same as that of Example 3.

Substance: LQAYFK-amide (LQAYFK-NH2) [Compound 4]
binding of anti-[N-Cys]-HC021-004 serum to the peptide [1]: bound
Hypotensive activity (dose/rat) 30 nmol ([2]; Table 1, anesthetized rats): −
Hypotensive activity (dose/rat) 100 nmol ([2]; Table 1, anesthetized rats): −
Hypotensive activity (dose/rat) 30 nmol ([2]; Table 2, anesthetized rats): −
Hypotensive activity (dose/rat) 100 nmol ([2]; Table 2, anesthetized rats): −

Substance: ATLRNEDTWKPLSNPRNRELFFRSLQAYFK-amide [Compound 36]
hypotensive activity (in words) [3]: observed to have a hypotensive activity even on the awake rats
Hypotensive activity (dose/rat) 10 nmol [3]: −
Hypotensive activity (dose/rat) 30 nmol [3]: −
Hypotensive activity (dose/rat) 100 nmol [3]: ++ (Strong activity (++): A decrease in systolic blood pressure is 20 mmHg or more and less than 30 mmHg, or the time required for recovery is less than 5 minutes.)
Hypotensive activity (dose/rat) 10 nmol ([2]; Table 3, anesthetized rats): −
Hypotensive activity (dose/rat) 30 nmol ([2]; Table 3, anesthetized rats): −
Hypotensive activity (dose/rat) 100 nmol ([2]; Table 3, anesthetized rats): +++ (Extremely strong activity (+++): A decrease in systolic blood pressure is 30 mmHg or more, and the time required for recovery is 5 minutes or more.)

Substance: LFFRRLQAYFKGRGLDLGTFPNPFPTNENPR [Compound 29]
Hypotensive activity (dose/rat) 10 nmol ([2]; Table 2, anesthetized rats): +++ (Extremely strong activity (+++): A decrease in systolic blood pressure is 30 mmHg or more, and the time required for recovery is 5 minutes or more.)

Continued, in another order:

binding of anti-[N-Cys]-HC021-004 serum to the peptide [1]: did not bind
Substance: LQAYFKGRGLDLGTFPNPFPTNENP [Compound 2]
Hypotensive activity (dose/rat) 10 nmol ([2]; Table 1, anesthetized rats): −
Hypotensive activity (dose/rat) 30 nmol ([2]; Table 1, anesthetized rats): −
Hypotensive activity (dose/rat) 100 nmol ([2]; Table 1, anesthetized rats): −

binding of anti-[N-Cys]-HC021-004 serum to the peptide [1]: bound
Substance: NRDLFFRRLQAYFK-amide (NRDLFFRRLQAYFK-NH2) [Compound 3]
hypotensive activity (in words) [3]: observed to have a hypotensive activity even on the awake rats
Hypotensive activity (dose/rat) 10 nmol [3]: −
Hypotensive activity (dose/rat) 30 nmol [3]: −
Hypotensive activity (dose/rat) 100 nmol [3]: ++ (Strong activity (++): A decrease in systolic blood pressure is 20 mmHg or more and less than 30 mmHg, or the time required for recovery is less than 5 minutes.)
Hypotensive activity (dose/rat) 10 nmol ([2]; Table 1, anesthetized rats): + (Activity observed (+): A decrease in systolic blood pressure is less than 20 mmHg.)
Hypotensive activity (dose/rat) 30 nmol ([2]; Table 1, anesthetized rats): ++ (Strong activity (++): A decrease in systolic blood pressure is 20 mmHg or more and less than 30 mmHg, or the time required for recovery is less than 5 minutes.)
Hypotensive activity (dose/rat) 100 nmol ([2]; Table 1, anesthetized rats): +++ (Extremely strong activity (+++): A decrease in systolic blood pressure is 30 mmHg or more, and the time required for recovery is 5 minutes or more.)
Hypotensive activity (dose/rat) 10 nmol ([2]; Table 2, anesthetized rats): + (Activity observed (+): A decrease in systolic blood pressure is less than 20 mmHg.)
Hypotensive activity (dose/rat) 30 nmol ([2]; Table 2, anesthetized rats): ++ (Strong activity (++): A decrease in systolic blood pressure is 20 mmHg or more and less than 30 mmHg, or the time required for recovery is less than 5 minutes.)
Hypotensive activity (dose/rat) 100 nmol ([2]; Table 2, anesthetized rats): +++ (Extremely strong activity (+++): A decrease in systolic blood pressure is 30 mmHg or more, and the time required for recovery is 5 minutes or more.)
Hypotensive activity (dose/rat) 10 nmol ([2]; Table 3, anesthetized rats): + (Activity observed (+): A decrease in systolic blood pressure is less than 20 mmHg.)
Hypotensive activity (dose/rat) 30 nmol ([2]; Table 3, anesthetized rats): ++ (Strong activity (++): A decrease in systolic blood pressure is 20 mmHg or more and less than 30 mmHg, or the time required for recovery is less than 5 minutes.)
Hypotensive activity (dose/rat) 100 nmol ([2]; Table 3, anesthetized rats): +++ (Extremely strong activity (+++): A decrease in systolic blood pressure is 30 mmHg or more, and the time required for recovery is 5 minutes or more.)
dose dependence of hypotensive activity ([2]; anesthetized rats, 10, 30, 100 nmol/rat): enhanced their hypotensive activity in a dose-dependent manner
hypotensive activity (in words) ([2]; anesthetized rats, Table 1 and FIG. 1, 10 or 30 nmol/rat, listed as HC021-004): observed to have a hypotensive activity; also recorded: act to lower the blood pressure of rats
